Holding throughout (assay type): in vivo, Drosophila
The subject of assay [1] is wild type flies. Description: climbing ability of wild type flies fed D- or L-dopa. The conditions noted are these: for effect on climbing response (in words): wild type flies fed 1 mM compound for 10 days; for % climbing abilities, WT: wild type flies fed 1 mM compound on dry yeast for 10 days. As for the experimental part: (§1) parkin mutant flies older than 3-4 days after eclosion moved extremely slowly or not at all, remaining on the bottom of the culture vials. To quantify the locomotor behavioral defects of parkin mutant flies, the climbing ability of the mutants was examined. To do so, fifteen flies were placed in a plastic vial, and gently tapped to the bottom of the vial. The number of flies at the top of the vial was counted after 18 seconds of climbing. Ten trials were performed for each time point. The trial numbers were then averaged, and the resulting mean was normalized by the mean value of 1-day-old wild type. These used as the climbing scores for each single group of flies on a particular day. The experiment was repeated five times, with independently derived transgenic lines. The climbing score for five repeated experiments was then averaged, and a group mean and standard error were obtained. As previously reported (Ganetzky and Flanagan, Exp. Gerontol., 13:189 (1978); Le Bourg and Lints, Gerontology 8:59 (1992); Feany and Bender, 2000; Pendleton et al., J. Pharmacol. Exp. Ther. 300:91 (2002)), wild type flies rapidly climb to the top of a vial when tapped to the bottom, and have a strong tendency to remain at the top. However, as the flies get older, they no longer climb to the top of the vial, in other words they lose climbing ability (Ganetzky and Flanagan, 1978; Le Bourg and Lints, 1992; Feany and Bender, 2000; Pendleton et al., 2002).
(§2) A compound was screened for its ability to rescue the defective climbing response of Dpark^1 and Dpark^2 mutants. Flies were reared and crossed on Caltech medium (Ashbumer, Drosophila, Cold Spring Harbor, N.Y.: Cold Spring Harbor Laboratory Press (1989)) at 25° C. Wild type or parkin mutant flies were fed either L-DOPA or D-DOPA for 10 days by placing dry yeast that was soaked with 0.3 mL of either 1 mM L-DOPA or 1 mM D-DOPA on the bottom of the vial.

Assay [2] concerns Dpark^2 parkin mutant flies. Description: rescue of defective climbing response of Dpark^2 mutant flies. The conditions noted are these: for % climbing abilities, Dpark2/Dpark2: Dpark2/Dpark2 flies fed 1 mM compound on dry yeast for 10 days, relative to unfed wild type control; for effect on climbing response (in words): Dpark^2 flies fed 1 mM compound for 10 days. As for the experimental part: as §1, §2

Assay [3] has as its system Dpark^1 parkin mutant flies. Nature of the assay: rescue of defective climbing response of Dpark^1 mutant flies. As to conditions: for % climbing abilities, Dpark1/Dpark1: Dpark1/Dpark1 flies fed 1 mM compound on dry yeast for 10 days, relative to unfed wild type control; for effect on climbing response (in words): Dpark^1 flies fed 1 mM compound for 10 days. As for the experimental part:
as §1, §2

Turning to `N[C@H](Cc1ccc(O)c(O)c1)C(=O)O` [D-dopa, D-DOPA], in assay [1], the “effect on climbing response (in words)” value is “Neither L-DOPA nor D-DOPA was effective” and the “% climbing abilities, WT” value worked out at 101.90 ± 2.72%. For the same compound, in assay [2], the “% climbing abilities, Dpark2/Dpark2” value was determined as 37.75 ± 2.44% and the “effect on climbing response (in words)” value is on record as “not effective”. In assay [3], the “% climbing abilities, Dpark1/Dpark1” value turned out to be 33.221 ± 1.87% and the “effect on climbing response (in words)” value is “not effective”.

For `N[C@@H](Cc1ccc(O)c(O)c1)C(=O)O` [L-dopa, L-DOPA], the “effect on climbing response (in words)” value in assay [1] was “Neither L-DOPA nor D-DOPA was effective”; in assay [2], “significantly restored the climbing response”; in assay [3], “significantly restored the climbing response”. Moreover, in assay [1], the “% climbing abilities, WT” value was found to be 100.59 ± 2.73%. The “% climbing abilities, Dpark2/Dpark2” value in assay [2] is listed as 68.51 ± 10.09%; in assay [2] (listed as L-DOPA), about 70%. Also, the “% climbing abilities, Dpark1/Dpark1” value in assay [3] is recorded as 68.20 ± 6.06%; in assay [3] (listed as L-DOPA), about 70%.
